Laboratory results taken from patent US20130023531A1, “PYRIMIDO[5,4-D]PYRIMIDYLAMINO PHENYL SULFONAMIDES AS SERINE/THREONINE KINASE INHIBITORS” (BOEHRINGER INGELHEIM INTERNATIONAL GMBH, priority 2011, published 2013).

system: SK-MEL-28 cells (B-RAF V600E mutated); assay: Inhibition of the proliferation of cultivated human melanoma cells (SK-MEL-28), AlamarBlue; format: cell-based; conditions: Homo sapiens, SK-MEL-28, 72 h, SK-MEL-28 melanoma cells, 72 h incubation
Method: Measurement of the Inhibition of the Proliferation of Cultivated Human Melanoma Cells (SK-MEL-28, B-RAF^V600E mutated)
For measuring the proliferation of cultivated human tumour cells, cells of the melanoma cell line SK-MEL-28 [from American Type Culture Collection (ATCC)] are cultivated in MEM medium, supplemented with 10% foetal calf serum, 2% sodium bicarbonate, 1 mM sodium pyruvate, 1% non-essential amino acids (e.g. from Cambrex, # BE13-114E) and 2 mM glutamine. SK-MEL-28 cells are placed in 96-well flat bottomed dishes in a density of 2500 cells per well in supplemented MEM medium (see above) and incubated overnight in an incubator (at 37° C. and 5% CO2). The active substances are added to the cells in different concentrations, so that a concentration range of 50 μM to 3.2 nM is covered. If necessary the initial concentration of 50 μM is changed to 10 μM or 2 μM and further dilution is carried out accordingly (up to 0.6 nM or 0.12 nM). After an incubation period of a further 72 h 20 μL AlamarBlue reagent (Serotec Ltd., # BUF012B) are added to each well and the cells are incubated for a further 3-6 h. The colour change of the AlamarBlue reagent is determined in a fluorescence spectrophotometer (e.g. Gemini, Molecular Devices). EC50 values are calculated using a software program (GraphPadPrizm).

Structure (SMILES) | EC50 [nM]
CCCS(=O)(=O)Nc1ccc(F)c(Nc2ncnc3cnc(N4CCN(C)CC4)nc23)c1F [Example I-4] | 1480
CCCS(=O)(=O)Nc1ccc(F)c(Nc2ncnc3cnc(NC4CC(N5CCN(C)CC5)C4)nc23)c1F (stereo not drawn) [Example I-10] | 1270
CCCS(=O)(=O)Nc1ccc(F)c(Nc2ncnc3cnc(NC4CCN(C)CC4)nc23)c1F [Example I-13] | 1480
CCCS(=O)(=O)Nc1ccc(F)c(Nc2ncnc3cnc(N4CCOCC4)nc23)c1F [Example I-2] | 514
CCCS(=O)(=O)Nc1ccc(F)c(Nc2ncnc3cnc(-n4cnc(C)c4)nc23)c1F [Example I-1] | 276
CCCS(=O)(=O)Nc1ccc(F)c(Nc2ncnc3cnc(N4CCC(F)(F)C4)nc23)c1F [Example I-6] | 493
CCCS(=O)(=O)Nc1ccc(F)c(Nc2ncnc3cnc(N4CCN(C5CCN(C)CC5)CC4)nc23)c1F [Example I-11] | 1070
CCCS(=O)(=O)Nc1ccc(F)c(Nc2ncnc3cnc(N[C@H]4CC[C@H](N5CCOCC5)CC4)nc23)c1F [Example I-16] | 1030
CCCS(=O)(=O)Nc1ccc(F)c(Nc2ncnc3cnc(NC4CCOC4)nc23)c1F (stereo not drawn) [Example I-5] | 668
CCCS(=O)(=O)Nc1ccc(F)c(Nc2ncnc3cnc(N4CCN(CCN5CCOCC5)CC4)nc23)c1F [Example I-9] | 1140
CCCS(=O)(=O)Nc1ccc(F)c(Nc2ncnc3cnc(N4CCN(CCN(C)C)CC4)nc23)c1F [Example I-15] | 781
CCCS(=O)(=O)Nc1ccc(F)c(Nc2ncnc3cnc(N4CCC(CN5CCCC5)CC4)nc23)c1F [Example I-12] | 952
CCCS(=O)(=O)Nc1ccc(F)c(Nc2ncnc3cnc(N4CCN(CCOC)CC4)nc23)c1F [Example I-3] | 1190
CCCS(=O)(=O)Nc1ccc(F)c(Nc2ncnc3cnc(N4CCC(CN(CC)CC)CC4)nc23)c1F [Example I-14] | 1670

Now from value to compound:

EC50 [nM] | Structure (SMILES)
297 | CCCS(=O)(=O)Nc1ccc(F)c(Nc2ncnc3cnc(-n4ccnc4C)nc23)c1F [Example I-32]
1630 | CCCS(=O)(=O)Nc1ccc(F)c(Nc2ncnc3cnc(N(C)C)nc23)c1F [Example I-23]
440 | CCCS(=O)(=O)Nc1ccc(F)c(Nc2ncnc3cnc(N4CCC5(CCN(C)CC5)CC4)nc23)c1F [Example I-21]
1590 | CCCS(=O)(=O)Nc1ccc(F)c(Nc2ncnc3cnc(N4CCC(C(C)N(C)C)CC4)nc23)c1F (stereo not drawn) [Example I-20]
424 | CCCS(=O)(=O)Nc1ccc(F)c(Nc2ncnc3cnc(Nc4ccncc4)nc23)c1F [Example I-28]
774 | CCCS(=O)(=O)Nc1ccc(F)c(Nc2ncnc3cnc(N4C[C@@H](C)O[C@@H](C)C4)nc23)c1F [Example I-18]
936 | CCCS(=O)(=O)Nc1ccc(F)c(Nc2ncnc3cnc(-n4cccn4)nc23)c1F [Example I-31]
807 | CCCS(=O)(=O)Nc1ccc(F)c(Nc2ncnc3cnc(-n4ccc(C)n4)nc23)c1F [Example I-27]
526 | CCCS(=O)(=O)Nc1ccc(F)c(Nc2ncnc3cnc(Nc4ccc(N5CCN(C)CC5)cc4)nc23)c1F [Example I-29]
1600 | CCCS(=O)(=O)Nc1ccc(F)c(Nc2ncnc3cnc(NC4CCN(CCOC)CC4)nc23)c1F [Example I-17]
504 | CCCS(=O)(=O)Nc1ccc(F)c(Nc2ncnc3cnc(-n4ccnc4)nc23)c1F [Example I-30]
143 | CCCS(=O)(=O)Nc1ccc(F)c(Nc2ncnc3cnc(-n4cnc(C)c4C)nc23)c1F [Example I-25]
1500 | CCCS(=O)(=O)Nc1ccc(F)c(Nc2ncnc3cnc(-n4cncn4)nc23)c1F [Example I-24]
1250 | CCCS(=O)(=O)Nc1ccc(F)c(Nc2ncnc3cnc(N4CCC(CN(C)C)CC4)nc23)c1F [Example I-19]
212 | CCCS(=O)(=O)Nc1ccc(F)c(Nc2ncnc3cnc(-n4cc(C)nc4C)nc23)c1F [Example I-26]
919 | CCCS(=O)(=O)Nc1ccc(F)c(Nc2ncnc3cnc(N[C@H]4CCOC4)nc23)c1F [Example I-22]
1800 | CCCS(=O)(=O)Nc1ccc(F)c(Nc2ncnc3cnc(NCCOC)nc23)c1F [Example I-33]

same assay, conditions: SK-MEL-28 melanoma cells, 72 h incubation

EC50 [nM] | Structure (SMILES)
176 | CCCS(=O)(=O)Nc1ccc(F)c(Nc2ncnc3cnc(N4CC[C@H](F)C4)nc23)c1F [Example I-7]
522 | CCCS(=O)(=O)Nc1ccc(F)c(Nc2ncnc3cnc(N4CC[C@H](F)C4)nc23)c1F [Example I-8]
